# Measurements: patent publication US11180462B2, “Microbiocidal oxadiazole derivatives” (SYNGENTA PARTICIPATIONS AG, priority 2015, dated 2021)
# Test system: Glomerella lagenarium (Colletotrichum lagenarium)
# Assay: Fungicidal activity against Glomerella lagenarium (Colletotrichum lagenarium) liquid culture / cucumber / preventative (anthracnose)
# Assay type: cell-based
# Conditions: Colletotrichum orbiculare; 20 ppm in the applied formulation; liquid culture (PDB), growth inhibition measured photometrically after 3 to 4 days; compared to untreated control; read-out: disease control
# Description: Mycelia fragments or conidia suspensions of a fungus prepared either freshly from liquid cultures of the fungus or from cryogenic storage, are directly mixed into nutrient broth. DMSO solutions of the test compound (max. 10 mg/ml) are diluted with 0.025% Tween20 by a factor of 50 and 10 μl of this solution is pipetted into a microtiter plate (96-well format). The nutrient broth containing the fungal spores/mycelia fragments is then added to give an end concentration of the tested compound. The test plates are incubated in the dark at 24° C. and 96% relative humidity. The inhibition of fungal growth is determined photometrically after 2 to 7 days, depending on the pathosystem, and percent antifungal activity relative to the untreated check is calculated.
# Fungicidal activity against Glomerella lagenarium (Colletotrichum lagenarium) liquid culture/cucumber/Preventative (Anthracnose)
# Conidia of the fungus from cryogenic storage are directly mixed into nutrient broth (PDB—potato dextrose broth). After placing a (DMSO) solution of test compound into a microtiter plate (96-well format), the nutrient broth containing the fungal spores is added.
# The following compounds at 20 ppm in the applied formulation give at least 80% disease control in this test when compared to untreated control under the same conditions, which show extensive disease development.
row,SMILES,inhibition of growth at 20 ppm [%]
1,"COCCCC(=O)N(Cc1ccc(-c2noc(C(F)(F)F)n2)cc1)OCC=C(Cl)Cl [Compound 1.543, N-(3,3-dichloroallyloxy)-4-methoxy-N-[[4-[5-(trifluoromethyl)-1,2,4-oxadiazol-3-yl]phenyl]methyl]-butanamide]",≥ 80
2,"CC1(C)CC1C(=O)N(Cc1ccc(-c2noc(C(F)(F)F)n2)cc1)CC1CC1 (centres unmarked) [Compound 1.231, N-(cyclopropylmethyl)-2,2-dimethyl-N-[[4-[5-(trifluoromethyl)-1,2,4-oxadiazol-3-yl]phenyl]methyl]-cyclopropane-carboxamide]",≥ 80
3,"C#CC(=O)N(OC)C(C)c1ccc(-c2noc(C(F)(F)F)n2)cc1 (centres unmarked) [Compound 1.269, N-methoxy-N-[1-[4-[5-(trifluoromethyl)-1,2,4-oxadiazol-3-yl]phenyl]ethyl]prop-2-ynamide]",≥ 80
4,"O=C(C1CC1)N(Cc1ccc(-c2noc(C(F)(F)F)n2)cc1)OCC=C(Cl)Cl [Compound 1.548, N-(3,3-dichloroallyloxy)-N-[[4-[5-(trifluoromethyl)-1,2,4-oxadiazol-3-yl]phenyl]methyl]-cyclopropane-carboxamide]",≥ 80
5,"CCCCC(=O)N(Cc1ccc(-c2noc(C(F)(F)F)n2)cc1)C(C)CC (centres unmarked) [Compound 1.409, N-sec-butyl-N-[[4-[5-(trifluoromethyl)-1,2,4-oxadiazol-3-yl]phenyl]methyl]-pentanamide]",≥ 80
6,"CON(Cc1ccc(-c2noc(C(F)(F)F)n2)cc1)C(=O)c1cc2c(cc1Br)OCO2 [Compound 1.55, 6-bromo-N-methoxy-N-[[4-[5-(trifluoromethyl)-1,2,4-oxadiazol-3-yl]phenyl]methyl]-1,3-benzoxlioxole-5-carboxamide]",≥ 80
7,"C=C(C)C(=O)N(Cc1ccc(-c2noc(C(F)(F)F)n2)cc1)OCCC [Compound 1.304, 2-methyl-N-propoxy-N-[[4-[5-(trifluoromethyl)-1,2,4-oxadiazol-3-yl]phenyl]methyl]-prop-2-enamide]",≥ 80
8,"CCCON(Cc1ccc(-c2noc(C(F)(F)F)n2)cc1)C(=O)C1=CCCC1 [Compound 1.291, N-propoxy-N-[[4-[5-(trifiuoromethyl)-1,2,4-oxadiazol-3-yl]phenyl]methyl]-cyclopentene-1-carboxamide]",≥ 80
9,"CCCC(C)(C)C(=O)N(Cc1ccc(-c2noc(C(F)(F)F)n2)cc1)C1CC1 [Compound 1.85, N-cyclopropyl-2,2-dimethyl-N-[[4-[5-(trifluoromethyl)-1,2,4-oxadiazol-3-yl]phenyl]methyl]-pentanamide]",≥ 80
10,"CCCON(Cc1ccc(-c2noc(C(F)(F)F)n2)cc1)C(=O)C1CC1C (centres unmarked) [Compound 1.299, 2-methyl-N-propoxy-N-[[4-[5-(trifluoromethyl)-1,2,4-oxadiazol-3-yl]phenyl]methyl]-cyclopropane-carboxamide]",≥ 80
11,"COC(C)C(=O)N(Cc1ccc(-c2noc(C(F)(F)F)n2)cc1)OCc1ccc(Cl)cc1 (centres unmarked) [Compound 1.559, N-[(4-chlorophenyl)-methoxy]-2-methoxy-N-[[4-[5-(trifluoromethyl)-1,2,4-oxadiazol-3-yl]phenyl)methyl]-propanamide]",≥ 80
12,"CON(Cc1ccc(-c2noc(C(F)(F)F)n2)cc1)C(=O)C(F)(F)F [Compound 1.780, 2,2,2-trifluoro-N-methoxy-N-[[4-[5-(trifluoromethyl)-1,2,4-oxadiazol-3-yl]phenyl]methyl]-acetamide]",≥ 80
13,"CCCCON(Cc1ccc(-c2noc(C(F)(F)F)n2)cc1)C(=O)CC1CC1 [Compound 1.650, N-butoxy-2-cydopropyl-N-[[4-[5-(trifluoromethyl)-1,2,4-oxadiazol-3-yl]phenyl]methyl]-acetamide]",≥ 80
14,"CCC(C)N(Cc1ccc(-c2noc(C(F)(F)F)n2)cc1)C(=O)C1CC1C (centres unmarked) [Compound 1.385, 2-methyl-N-sec-butyl-N-[[4-[5-(trifluoromethyl)-1,2,4-oxadiazol-3-yl]phenyl]methyl]-cyclopropane-carboxamide]",≥ 80
15,"CCCON(Cc1ccc(-c2noc(C(F)(F)F)n2)cc1)C(=O)C1(C)CC1 [Compound 1.302, 1-methyl-N-propoxy-N-[[4-[5-(trifluoromethyl)-1,2,4-oxadiazol-3-yl]phenyl]methyl]-cyclopropane-carboxamide]",≥ 80
16,"CC#CC(=O)N(Cc1ccc(-c2noc(C(F)(F)F)n2)cc1)OCCC [Compound 1.282, N-propoxy-N-[[4-[5-(trifluoromethyl)-1,2,4-oxadiazol-3-yl]phenyl]methyl]but-2-ynamide]",≥ 80

row,SMILES,inhibition of growth at 20 ppm [%]
1,"CCCON(Cc1ccc(-c2noc(C(F)(F)F)n2)cc1)C(=O)C(C)C [Compound 1.284, 2-methyl-N-propoxy-N-[[4-[5-(trifluoromethyl)-1,2,4-oxadiazol-3-yl]phenyl]methyl]-propanamide]",≥ 80
2,"CCC(CC(=O)N(Cc1ccc(-c2noc(C(F)(F)F)n2)cc1)C1CC1)C(F)(F)F (centres unmarked) [Compound 1.148, N-cyclopropyl-3-(trifluoromethyl)-N-[[4-[5-(trifluoromethyl)-1,2,4-oxadiazol-3-yl]phenyl]methyl]-pentanamide]",≥ 80
3,"CCCON(Cc1ccc(-c2noc(C(F)(F)F)n2)cc1)C(=O)C1CCC1 [Compound 1.295, N-propoxy-N-[[4-[5-(trifluoromethyl)-1,2,4-oxadiazol-3-yl]phenyl]methyl]-cyclobutane-carboxamide]",≥ 80
4,O=C(C1OCCO1)N(Cc1ccc(-c2noc(C(F)(F)F)n2)cc1)OCC=C(Cl)Cl [Compound 1.547],≥ 80
5,"CCCON(Cc1ccc(-c2noc(C(F)(F)F)n2)cc1)C(=O)C1CSC1 [Compound 1.292, N-propoxy-N-[[4-[5-(trifluoromethyl)-1,2,4-oxadiazol-3-yl]pheny1]methyl]-thietane-3-carboxamide]",≥ 80
6,"CCCCOC(=O)N(Cc1ccc(-c2noc(C(F)(F)F)n2)cc1)OC [Compound 2.12, butyl N-methoxy-N-[[4-[5-(trifluoromethyl)-1,2,4-oxadiazol-3-yl]phenyl]methyl]-carbamate]",≥ 80
7,"CON(Cc1ccc(-c2noc(C(F)(F)F)n2)cc1)C(=O)OCC(C)(C)C [Compound 2.18, 2,2-dimethylpropyl N-methoxy-N-[[4-[5-(trifluoromethyl)-1,2,4-oxadiazol-3-yl]phenyl]methyl]-carbamate]",≥ 80
8,"C=CCCC(=O)N(Cc1ccc(-c2noc(C(F)(F)F)n2)cc1)CC1CC1 [Compound 1.208, N-(cyclopropylmethyl)-N-[[4-[5-(trifluoromethyl)-1,2,4-oxadiazol-3-yl]phenyl]methyl]-pent-4-enamide]",≥ 80
9,"C#CCN(Cc1ccc(-c2noc(C(F)(F)F)n2)cc1)C(=O)Cc1ccccc1Cl [Compound 1.163, 2-(2-chlorophenyl)-N-prop-2-ynyl-N-[[4-[5-(trifluoromethyl)-1,2,4-oxadiazol-3-yl]phenyl]methyl]-acetamide]",≥ 80
10,"CCCCON(Cc1ccc(-c2noc(C(F)(F)F)n2)cc1)C(=O)C(C)C [Compound 1.633, N-butoxy-2-methyl-N-[[4-[5-(trifluoromethyl)-1,2,4-oxadiazol-3-yl]phenyl]methyl]-propanamide]",≥ 80
11,"N#Cc1ccc(CC(=O)N(Cc2ccc(-c3noc(C(F)(F)F)n3)cc2)CC2CC2)cc1 [Compound 1.236, 2-(4-cyanophenyl)-N-(cyclopropylmethyl)-N-[[4-[5-(trifluoromethyl)-1,2,4-oxadiazol-3-yl]phenyl]methyl]-acetamide]",≥ 80
12,"CC1CC1C(=O)N(Cc1ccc(-c2noc(C(F)(F)F)n2)cc1)CC1CCCO1 (centres unmarked) [Compound 1.428, 2-methyl-N-(tetrahydrofuran-2-ylmethyl)-N-[[4-[5-(trifluoromethyl)-1,2,4-oxadiazol-3-yl]phenyl]methyl]-cyclopropane-carboxamide]",≥ 80
13,"CCCON(Cc1ccc(-c2noc(C(F)(F)F)n2)cc1)C(=O)CC1CC1 [Compound 1.289, 2-cyclopropyl-N-propoxy-N-[[4-[5-(trifluoromethyl)-1,2,4-oxadiazol-3-yl]phenyl]methyl]-acetamide]",≥ 80
14,"O=C(C=CC(F)(F)F)N(Cc1ccc(-c2noc(C(F)(F)F)n2)cc1)CC1CCCO1 (centres unmarked) [Compound 1.425, 4,4,4-trifluoro-N-(tetrahydrofuran-2-ylmethyl)-N-[[4-[5-(trifluoromethyl)-1,2,4-oxadiazol-3-yl]phenyl]methyl]-but-2-enamide]",≥ 80
15,"CCCC(=O)N(Cc1ccc(-c2noc(C(F)(F)F)n2)cc1)OCc1ccc(Cl)cc1 [Compound 1.554, N-[(4-chlorophenyl)-methoxy]-N-[[4-[5-(trifluoromethyl)-1,2,4-oxadiazol-3-yl]phenyl]methyl]-butanamide]",≥ 80
16,"O=C(C1CCCC1)N(Cc1ccc(-c2noc(C(F)(F)F)n2)cc1)CC1CCCO1 (centres unmarked) [Compound 1.419, N-(tetrahydrofuran-2-ylmethyl)-N-[[4-[5-(trifluoromethyl)-1,2,4-oxadiazol-3-yl]phenyl]methyl]-cyclopentane-carboxamide]",≥ 80
